Assay results from patent US12110293B2, “Substituted triazolo quinoxaline derivatives” (GRÜNENTHAL GMBH, priority 2018, dated 2024).

The compounds below were run against T1, glucocorticoid receptor (Homo sapiens, UniProt P04150) (assay: Agonistic mode of action on the glucocorticoid receptor (CHO-Gal4/GR luciferase reporter cell line)). Details: range class observed in the agonistic assay or the antagonistic assay (CHO-Gal4/GR reporter cells); table does not say which mode applies per example.
T1 construct: expressed in transfected cells
T1 sequence (P04150 524-758 limits assumed): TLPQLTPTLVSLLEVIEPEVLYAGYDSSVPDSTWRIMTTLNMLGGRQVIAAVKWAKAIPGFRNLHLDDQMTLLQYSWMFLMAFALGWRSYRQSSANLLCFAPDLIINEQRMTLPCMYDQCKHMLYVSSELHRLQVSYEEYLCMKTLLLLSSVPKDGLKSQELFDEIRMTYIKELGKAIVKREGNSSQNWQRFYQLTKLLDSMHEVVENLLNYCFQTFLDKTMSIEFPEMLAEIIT
Format: cell-based
Source text: Potential selective glucocorticoid receptor modulators of this intervention can be tested for modulation of the activity of the glucocorticoid receptor using cell-based assays. These assays involve a Chinese hamster ovary (CHO) cell line which contains fragments of the glucocorticoid receptor as well as fusion proteins. The glucocorticoid receptor fragments used are capable of binding the ligand (e.g. beclomethasone) to identify molecules that compete for binding with glucocorticoid receptor ligands. In more detail, the glucocorticoid receptor ligand binding domain is 25 fused to the DNA binding domain (DBD) of the transcriptionfactor GAL4 (GAL4 DBD-GR) and is stably integrated into a CHO cell line containing a GAL4-UAS-Luciferase reporter construct. […] After cell lysis the luminescence that is produced by luciferase after addition of the substrate is detected and EC50 or IC50 values can be calculated. Engagement of molecules which induce gene expression via glucocortocoid receptor binding to the DNA leads to expression of the luciferase gene under the control of the fusion protein GAL4 DBD-GR and therefore to a dose-dependent increase of the luminescence signal. Binding of molecules which repress beclomethasone-induced gene expression of the luciferase gene under the control of the fusion protein GAL4 DBD-GR leads to a dose-dependent reduction of the luminescence signal.
Biological Assays Agonistic Mode of Action on the Glucocorticoid Receptor
The reporter cell line CHO-Gal4/GR consisted of a Chinese hamster ovary (CHO) cell line (Leibniz Institute DSMZ—German Collection of Microorganisms and Cell CuItures GmbH: ACC-110) containing a firefly luciferase gene under the control of the GR ligand binding domain fused to the DNA binding domain (DBD) of GAL4 (GAL4 DBD-GR) stably integrated into CHO cells. This cell line was established by stable transfection of CHO cells with a GAL4-UAS-Luciferase reporter construct. In a subsequent step the ligand binding domain of the GR cloned into pIRES2-EGFP-GAL4 containing the DNA binding domain of GAL4 from pFA-AT2 was transfected. This fusion construct activated firefly luciferase expression under the control of a multimerized GAL4 upstream activation sequence (UAS). The signal of the emitted luminescence was recorded by the FLIPR^TETRA. This allowed for specific detection of ligand-induced activation of the GR and therefore for the identification of compounds with agonistic properties. The GAL4/UAS reporter was premixed with a vector that constitutively expressed Renilla luciferase, which served as an internal positive control for transfection efficiency.
The complete culture medium for the assay was: • DMEM F-12 (1:1) MIXTURE (LONZA cat. N°: BE04-687F/U1) 500 mL • 5 mL of 100 mM Sodium Pyruvate (LONZA cat. N°: BE12-115E) • 25 mL of 7.5% Sodium Bicarbonate (LONZA cat. N° BE17-613E) • 6.5 mL of 1 M Hepes (LONZA cat. N°: BE17-737E) • 5 mL of 100× Penicillin/Streptomycin (LONZA cat. N° DE17-602E) • 50 mL of Fetal Bovine Serum (Euroclone cat. N° ECS 0180L) • 0.25 mL of 10 mg/mL Puromycin (InvivoGen cat.: ant-pr-1) • 0.5 mL of 100 mg/mL Zeocin (InvivoGen cat.: ant-zn-1)
Cryo-preserved CHO-Gal4/GR cells were suspended in complete medium and 5000 cells/25 μl/well were seeded into the wells of 384-well polystyrene assay plates (Thermo Scientific, cat. #4332) and cultured at 37° C., 5% CO2 and 95% humidity. After 24 hours growth medium was carefully removed and replaced by 30 μl Opti-MEM (GIBCO, cat. #31985062) as assay buffer. To test the compounds an 8-point half-log compound dilution curve was generated in 100% DMSO starting from a 2 mM stock and compounds were then diluted 1:50 in Opti-MEM. 10 μl of compounds were then added to the wells containing 30 μl Opti-MEM resulting in a final assay concentration range from 10 μM to 0.003 μM in 0.5% DMSO. Compounds were tested at 8 concentrations in quadruplicate data points.

IC50 or EC50 (agonist or antagonist mode not specified), < 0.1 µM:
COCCn1ccc2c(-c3c(F)cc4c(c3OC)-n3c(C)nnc3C(C)(C)N4)cc(F)cc21 [Example 351, 7-Fluoro-8-[6-fluoro-1-(2-methoxy-ethyl)-1H-indol-4-yl]-9-methoxy-1,4,4-trimethyl-5H-[1,2,4]triazolo [4,3-a]quinoxaline]
COCC(=O)n1ccc2c(-c3c(F)cc4c(c3F)-n3c(C)nnc3C(C)(C)N4)cccc21 [Example 213, 1-[4-(7,9-Difluoro-1,4,4-trimethyl-5H-[1,2,4]triazolo[4,3-a]quinoxalin-8-yl)-1H-indol-1-yl]-2-methoxy-ethanone]
CCS(=O)(=O)n1ccc2c(-c3c(F)cc4c(c3C(F)(F)F)-n3c(C)nnc3C(C)(C)N4)cccc21 [Example 455, 8-[1-(Ethylsulfonyl)-1H-indol-4-yl]-7-fluoro-1,4,4-trimethyl-9-(trifluoromethyl)-5H-[1,2,4]triazolo[4,3-a]quinoxaline]
Cc1nnc2n1-c1c(cc(F)c(-c3cc(F)cc4c3ccn4S(C)(=O)=O)c1F)NC2(C)C [Example 3, 7,9-difluoro-8-(6-fluoro-1-(methylsulfonyl)-1H-indol-4-yl)-1,4,4-trimethyl-4,5-dihydro-[1,2,4]triazolo[4,3-a]quinoxaline]

IC50 or EC50 (agonist or antagonist mode not specified), 0.1 to 1 µM:
Cc1nnc2n1-c1c(cc(F)c(-c3cccc4c3cc(C(F)(F)F)n4C3CC3)c1F)NC2(C)C [Example 312, 8-[1-Cyclopropyl-2-(trifluoromethyl)-1H-indol-4-yl]-7,9-difluoro-1,4,4-trimethyl-5H-[1,2,4]triazolo[4,3-a]quinoxaline]
Cc1c[nH]c2c(-c3c(Cl)cc4c(c3F)-n3c(C)nnc3C(C)(C)N4)cccc12 [Example 272, 7-Chloro-9-fluoro-1,4,4-trimethyl-8-(3-methyl-1H-indol-7-yl)-5H-[1,2,4]triazolo[4,3-a]quinoxaline]
COCCn1ccc2c(-c3c(Cl)cc4c(c3F)-n3c(C)nnc3C(C)(C)N4)cc(F)cc21 [Example 404, 7-Chloro-9-fluoro-8-[6-fluoro-1-(2-methoxy-ethyl)-1H-indol-4-yl]-1,4,4-trimethyl-5H-[1,2,4]triazolo[4,3-a]quinoxaline]
Cc1c(-c2cccc3c2cnn3S(C)(=O)=O)ccc2c1-n1c(C)nnc1C(C)(C)N2 [Example 457, 1,4,4,9-Tetramethyl-8-(1-methylsulfonyl-1H-indazol-4-yl)-5H-[1,2,4]triazolo[4,3-a] quinoxaline]
Cc1nnc2n1-c1c(cc(F)c(-c3cccc4c3ccn4S(=O)(=O)CC3CC3)c1C(F)F)NC2(C)C [Example 502, 8-[1-(Cyclopropyl-methylsulfonyl)-1H-indol-4-yl]-9-(difluoro-methyl)-7-fluoro-1,4,4-trimethyl-5H-[1,2,4]triazolo[4,3-a]quinoxaline]
COc1cc2c(c(F)c1-c1cccc3c(C)c[nH]c13)-n1c(C)nnc1C(C)(C)N2 [Example 266, 9-Fluoro-7-methoxy-1,4,4-trimethyl-8-(3-methyl-1H-indol-7-yl)-5H-[1,2,4]triazolo[4,3-a]quinoxaline]
Cc1nnc2n1-c1c(ccc(-c3cccc4c3ccn4S(C)(=O)=O)c1C(F)(F)F)NC2(C)C [Example 498, 1,4,4-Trimethyl-8-(1-methylsulfonyl-1H-indol-4-yl)-9-(trifluoromethyl)-5H-[1,2,4]triazolo[4,3-a]quinoxaline]
Cc1nnc2n1-c1c(cc(F)c(-c3cc(F)cc4c3ccn4S(=O)(=O)C3CC3)c1F)NC2(C)C [Example 19, 8-(1-(cyclopropylsulfonyl)-6-fluoro-1H-indol-4-yl)-7,9-difluoro-1,4,4-trimethyl-4,5-dihydro-[1,2,4]triazolo[4,3-a]quinoxaline]
COc1cc2c(c(C)c1-c1cc(F)cc3c(C)c[nH]c13)-n1c(C)nnc1C(C)(C)N2 [Example 345, 8-(5-Fluoro-3-methyl-1H-indol-7-yl)-7-methoxy-1,4,4,9-tetramethyl-5H-[1,2,4]triazolo[4,3-a]quinoxaline]

IC50 or EC50 (agonist or antagonist mode not specified), 1 to 15 µM:
Cc1nnc2n1-c1c(cc(F)c(-c3cccc4c3ccn4CC(=O)N(C)C)c1F)NC2(C)C [Example 212, 2-[4-(7,9-Difluoro-1,4,4-trimethyl-5H-[1,2,4]triazolo[4,3-a]quinoxalin-8-yl)-1H-indol-1-yl]-N,N-dimethyl-acetamide]
COCCn1c(C(F)(F)F)cc2c(-c3c(OC(F)F)cc4c(c3F)-n3c(C)nnc3C(C)(C)N4)cccc21 [Example 259, 7-(Difluoro-methoxy)-9-fluoro-8-[1-(2-methoxy-ethyl)-2-(trifluoromethyl)-1H-indol-4-yl]-1,4,4-trimethyl-5H-[1,2,4]triazolo[4,3-a]quinoxaline]
CCc1nnc2n1-c1c(cc(F)c(-c3cccc4c(C#N)c[nH]c34)c1F)NC2(C)C [Example 12, 7-(T-ethyl-7,9-difluoro-4,4-dimethyl-4,5-dihydro-[1,2,4]triazolo[4,3-a]quinoxalin-8-yl)-1H-indole-3-carbonitrile]
COCCn1ccc2c(-c3c(OC(F)F)cc4c(c3C)-n3c(C)nnc3C(C)(C)N4)cccc21 [Example 336, 7-(Difluoro-methoxy)-8-[1-(2-methoxy-ethyl)-1H-indol-4-yl]-1,4,4,9-tetramethyl-5H-[1,2,4]triazolo[4,3-a]quinoxaline]
Cc1nnc2n1-c1c(cc(F)c(-c3cc(F)cc4[nH]c(C#N)cc34)c1F)NC2(C)C [Example 6, 4-(7,9-difluoro-1,4,4-trimethyl-4,5-dihydro-[1,2,4]triazolo[4,3-a]quinoxalin-8-yl)-6-fluoro-1H-indole-2-carbonitrile]
Cc1nnc2n1-c1c(cc(F)c(-c3cccc4c3ccn4CCNC(=O)C(C)(F)F)c1F)NC2(C)C [Example 229, N-[2-[4-(7,9-Difluoro-1,4,4-trimethyl-5H-[1,2,4]triazolo[4,3-a]quinoxalin-8-yl)-1H-indol-1-yl]-ethyl]-2,2-difluoro-propionamide]
CCc1nnc2n1-c1c(cc(F)c(-c3c(F)ccc4[nH]ccc34)c1C)NC2(C)C [Example 244, 1-Ethyl-7-fluoro-8-(5-fluoro-1H-indol-4-yl)-4,4,9-trimethyl-5H-[1,2,4]triazolo[4,3-a]quinoxaline]
COCCn1ccc2c(-c3c(OC)cc4c(c3C(F)(F)F)-n3c(C)nnc3C(C)(C)N4)cccc21 [Example 334, 7-Methoxy-8-[1-(2-methoxy-ethyl)-1H-indol-4-yl]-1,4,4-trimethyl-9-(trifluoromethyl)-5H-[1,2,4]triazolo[4,3-a]quinoxaline]
